{"source": "patent US12685733B2", "about": "“Indole molecules and use thereof in the inhibition of DNA polymerases” (BioVentures, LLC, priority 2019, dated 2026)", "origin": "cited, not measured here", "molecular_target": "T1, recombinant hpol κ (Homo sapiens, UniProt Q9UBT6)", "T1 sequence (Q9UBT6 1-870)": "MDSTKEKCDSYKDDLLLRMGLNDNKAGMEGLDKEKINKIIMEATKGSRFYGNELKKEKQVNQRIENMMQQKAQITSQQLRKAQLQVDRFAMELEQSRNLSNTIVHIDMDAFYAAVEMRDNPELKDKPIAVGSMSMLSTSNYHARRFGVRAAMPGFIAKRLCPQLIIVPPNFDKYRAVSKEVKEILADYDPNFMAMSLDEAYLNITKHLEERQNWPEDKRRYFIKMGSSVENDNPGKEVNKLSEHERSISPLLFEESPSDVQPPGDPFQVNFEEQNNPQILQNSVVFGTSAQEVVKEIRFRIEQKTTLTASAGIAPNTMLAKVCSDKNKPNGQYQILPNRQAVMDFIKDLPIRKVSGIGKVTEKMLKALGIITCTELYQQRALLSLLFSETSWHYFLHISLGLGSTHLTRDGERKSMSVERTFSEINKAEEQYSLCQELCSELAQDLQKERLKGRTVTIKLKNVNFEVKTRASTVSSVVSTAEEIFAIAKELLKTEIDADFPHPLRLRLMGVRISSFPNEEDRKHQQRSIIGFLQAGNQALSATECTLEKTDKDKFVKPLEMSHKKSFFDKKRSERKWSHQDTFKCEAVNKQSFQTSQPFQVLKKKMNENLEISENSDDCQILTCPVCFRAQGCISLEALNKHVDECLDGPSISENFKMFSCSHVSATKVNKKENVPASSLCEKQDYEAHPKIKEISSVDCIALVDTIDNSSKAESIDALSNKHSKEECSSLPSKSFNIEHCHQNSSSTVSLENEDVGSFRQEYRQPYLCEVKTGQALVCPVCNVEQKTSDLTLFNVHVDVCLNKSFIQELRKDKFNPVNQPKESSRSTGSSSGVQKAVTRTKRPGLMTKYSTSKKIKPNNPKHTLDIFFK", "conditions": "earlier screen; cited from earlier work"}
{"smiles": "CCOc1nc2cccc(C(=O)OC(C)OC(=O)OC3CCCCC3)c2n1Cc1ccc(-c2ccccc2-c2nn[nH]n2)cc1", "note": "(stereo not shown) [candesartan, candesartan cilexetil]", "values": [{"measurement": "IC50 for inhibition of recombinant hpol κ", "value": "tens of micromolar"}]}
